Assay: xn = mol fraction of the nth substance listed
Conditions: 101 kPa, Liquid

CCn1cc[n+](C)c1.O=S(=O)([O-])C(F)(F)F [1-ethyl-3-methylimidazolium trifluoromethanesulfonate] + O
Conditions | mass density [kg/m3] | viscosity [mPa·s]
278.15 K, x2 = 0 | 1400.52 | 96
278.15 K, x2 = 0.2286 | – | 47
278.15 K, x2 = 0.2295 | 1388.3 | –
278.15 K, x2 = 0.431 | 1372.38 | –
278.15 K, x2 = 0.4324 | – | 28
278.15 K, x2 = 0.6157 | 1347.34 | –
278.15 K, x2 = 0.6159 | – | 18
278.15 K, x2 = 0.7825 | 1299.91 | –
278.15 K, x2 = 0.783 | – | 10
278.15 K, x2 = 0.8608 | 1254.76 | –
278.15 K, x2 = 0.9352 | – | 5
278.15 K, x2 = 0.9353 | 1171.9 | –
278.15 K, x2 = 0.9712 | 1097.49 | –
278.15 K, x2 = 0.9924 | 1030.35 | –
288.15 K, x2 = 0 | 1392.04 | 61
288.15 K, x2 = 0.2286 | – | 32
288.15 K, x2 = 0.2295 | 1379.81 | –
288.15 K, x2 = 0.431 | 1363.87 | –
288.15 K, x2 = 0.4324 | – | 20
288.15 K, x2 = 0.6157 | 1338.87 | –
288.15 K, x2 = 0.6159 | – | 13
288.15 K, x2 = 0.7825 | 1291.74 | –
288.15 K, x2 = 0.783 | – | 7
288.15 K, x2 = 0.8608 | 1247.16 | –
288.15 K, x2 = 0.9352 | – | 4
288.15 K, x2 = 0.9353 | 1165.97 | –
288.15 K, x2 = 0.9712 | 1093.64 | –
288.15 K, x2 = 0.9924 | 1028.64 | –
298.15 K, x2 = 0 | 1383.6 | 41
298.15 K, x2 = 0.2286 | – | 23
298.15 K, x2 = 0.2295 | 1371.36 | –
298.15 K, x2 = 0.431 | 1355.39 | –
298.15 K, x2 = 0.4324 | – | 15
298.15 K, x2 = 0.6157 | 1330.37 | –
298.15 K, x2 = 0.6159 | – | 10
298.15 K, x2 = 0.7825 | 1283.47 | –
298.15 K, x2 = 0.783 | – | 6
298.15 K, x2 = 0.8608 | 1239.38 | –
298.15 K, x2 = 0.9352 | – | 3
298.15 K, x2 = 0.9353 | 1159.65 | –
298.15 K, x2 = 0.9712 | 1089.08 | –
298.15 K, x2 = 0.9924 | 1025.88 | –
308.15 K, x2 = 0 | 1375.22 | 29
308.15 K, x2 = 0.2286 | – | 17
308.15 K, x2 = 0.2295 | 1362.95 | –
308.15 K, x2 = 0.431 | 1346.93 | –
308.15 K, x2 = 0.4324 | – | 12
308.15 K, x2 = 0.6157 | 1321.86 | –
308.15 K, x2 = 0.6159 | – | 8
308.15 K, x2 = 0.7825 | 1275.1 | –
308.15 K, x2 = 0.783 | – | 5
308.15 K, x2 = 0.8608 | 1231.42 | –
308.15 K, x2 = 0.9352 | – | 3
308.15 K, x2 = 0.9353 | 1152.94 | –
308.15 K, x2 = 0.9712 | 1083.9 | –
308.15 K, x2 = 0.9924 | 1022.24 | –
318.15 K, x2 = 0 | 1366.9 | 21
318.15 K, x2 = 0.2286 | – | 13
318.15 K, x2 = 0.2295 | 1354.59 | –
318.15 K, x2 = 0.431 | 1338.49 | –
318.15 K, x2 = 0.4324 | – | 10
318.15 K, x2 = 0.6157 | 1313.33 | –
318.15 K, x2 = 0.6159 | – | 7
318.15 K, x2 = 0.7825 | 1266.62 | –
318.15 K, x2 = 0.783 | – | 4
318.15 K, x2 = 0.8608 | 1223.27 | –
318.15 K, x2 = 0.9352 | – | 3
318.15 K, x2 = 0.9353 | 1145.88 | –
318.15 K, x2 = 0.9712 | 1078.18 | –
318.15 K, x2 = 0.9924 | 1017.86 | –
328.15 K, x2 = 0 | 1358.63 | 16
328.15 K, x2 = 0.2286 | – | 10
328.15 K, x2 = 0.2295 | 1346.27 | –
328.15 K, x2 = 0.431 | 1330.07 | –
328.15 K, x2 = 0.4324 | – | 8
328.15 K, x2 = 0.6157 | 1304.78 | –
328.15 K, x2 = 0.6159 | – | 6
328.15 K, x2 = 0.7825 | 1258.04 | –
328.15 K, x2 = 0.783 | – | 4
328.15 K, x2 = 0.8608 | 1214.94 | –
328.15 K, x2 = 0.9352 | – | 3
328.15 K, x2 = 0.9353 | 1138.49 | –
328.15 K, x2 = 0.9712 | 1071.95 | –
328.15 K, x2 = 0.9924 | 1012.83 | –
338.15 K, x2 = 0 | 1350.43 | 13
338.15 K, x2 = 0.2286 | – | 9
338.15 K, x2 = 0.2295 | 1338.01 | –
338.15 K, x2 = 0.431 | 1321.68 | –
338.15 K, x2 = 0.4324 | – | 7
338.15 K, x2 = 0.6157 | 1296.19 | –
338.15 K, x2 = 0.6159 | – | 5
338.15 K, x2 = 0.7825 | 1249.35 | –
338.15 K, x2 = 0.783 | – | 4
338.15 K, x2 = 0.8608 | 1206.43 | –
338.15 K, x2 = 0.9352 | – | 2
338.15 K, x2 = 0.9353 | 1130.76 | –
338.15 K, x2 = 0.9712 | 1065.25 | –
338.15 K, x2 = 0.9924 | 1007.21 | –
348.15 K, x2 = 0 | 1342.3 | 11
348.15 K, x2 = 0.2286 | – | 7
348.15 K, x2 = 0.2295 | 1329.77 | –
348.15 K, x2 = 0.431 | 1313.29 | –
348.15 K, x2 = 0.4324 | – | 6
348.15 K, x2 = 0.6157 | 1287.58 | –
348.15 K, x2 = 0.6159 | – | 5
348.15 K, x2 = 0.7825 | 1240.55 | –
348.15 K, x2 = 0.783 | – | 3
348.15 K, x2 = 0.8608 | 1197.74 | –
348.15 K, x2 = 0.9352 | – | 2
348.15 K, x2 = 0.9353 | 1122.73 | –
348.15 K, x2 = 0.9712 | 1058.13 | –
348.15 K, x2 = 0.9924 | 1001.05 | –
